In article PMC5290737, “Surface mediated cooperative interactions of drugs enhance mechanical forces for antibiotic action” (Scientific Reports, 2017):
In brackets after ≈: the same amount, converted by molar mass. Several values for one entry are separate records, joined by “and”; a condition that tells them apart may be missing. Equal entries are not always repeated. Where two headings read alike, the source gives them in different places.

How the values were obtained:
[1] = ligand-ligand dissociation constant in solution; ref. 2 (Van, CE, Ori), ref. 5 (Rist), supplementary references; read-out: K1 Solution (complex aggregation constant); cited from earlier work
[2] = target: VRR in solution; conditions: ref. 1 (Van), ref. 6 (Rist), ref. 8 (CE), ref. 2 (Ori), supplementary references, read-out: Ksurf Solution; cited from earlier work
[3] = system: membrane bound VRR (competitor Ac-VSR); assay: Competitive inhibition of drug-VRR cantilever response by Ac-VSR in solution; assay type: binding; conditions: for IC50: Van 50 μM or Ori 0.1 μM against VRR cantilever, fit of equation (1), read-out: IC50 (concentration of antagonist Ac-VSR giving 50% inhibition of drug-receptor interactions at the surface); for Ac-VSR concentration required to inhibit the mechanical response: Van 50 μM, Ori 0.1 μM against VRR
Method: In the first set of experiments, we assessed whether the 2-D boundary layer could mediate more efficient complex aggregation of antibiotics and thus lead to enhanced signal transduction compared to a 3-D solution. To achieve this, diacetyl vancomycin susceptible receptor (or Ac-VSR)[14] was added to the solution containing Van or Ori in order to act as a competitor against membrane bound VRR. […] The concentrations of Van and Ori in solution were kept constant at 50 μM and 0.1 μM respectively. These particular concentrations were chosen because (1) they give rise to relatively large mechanical bending signals, (2) they fall within the linear portions of the Langmuir adsorption isotherms, and (3) they require relatively low levels of Ac-VSR to inhibit the mechanical response at the surface. We therefore reasoned that if the interaction between a drug and Ac-VSR is independent of any surface effects then the amount of Ac-VSR which inhibits the mechanical response at a surface is expected to be the same for both Van and Ori. The concentration of antagonist (Ac-VSR) that gives rise to 50% inhibition (IC50) of drug-receptor interactions at the surface was used as measure of membrane effects on the association kinetics and mechanical response. […] To calculate the IC50, we analyzed the data using equation (1), whose detailed derivation has been reported previously.
Here σeq is the equilibrium mechanical stress, σligand1 is the mechanical stress generated by ligand1 in the absence of a competing ligand2, σligand2 is the corresponding minimum stress generated by ligand1 in the presence of a large excess of the concentration of competing ligand2. […] The IC50 for Ori is 3-fold larger than that of Van.

[4] = system: vancomycin susceptible E. faecalis (VSE); conditions: absence of polysorbate-80; ref. 9 (Van, CE, Ori), ref. 10 (Rist), supplementary references; cited from earlier work
[5] = system: methicillin-resistant Staphylococcus aureus (MRSA); conditions: absence of polysorbate-80; supplementary references; cited from earlier work
[6] = system: methicillin-susceptible Staphylococcus aureus (MSSA) ATCC 29213; assay: MIC by broth microdilution (CLSI M07-A8), with PS80; assay type: cell-based
Method: Determination of MIC values to methicillin-susceptible Staphylococcus aureus (MSSA).
Minimum Inhibitory Concentration (MIC) is defined as the lowest concentration of antibacterial agent required to inhibit growth of a microorganism after incubation. The antibiotics vancomycin (Van) and ristomycin (Rist) were obtained from Sigma-Aldrich while chloroeremomycin (CE) and oritavancin (Ori) were obtained from the Medicine Company Inc., U.S.A. To prepare antibiotic stock solutions for MICs assay, 5 mg/ml of each drug was dissolved in water containing an appropriate volume of 0.002% polysorbate-80 or PS80 obtained from Sigma-Aldrich which corresponds to 20 µM to eliminate nonspecific interactions of drugs to surfaces particularly for Ori which is known to bind to glass and plastics13. Microbiological broth with PS80 maintained at 20 µM was used in the drug dilution steps until the required final (assay) concentration. Diluted concentrations of each drug were assayed by adding an inoculum of methicillin-susceptible Staphylococcus aureus (MSSA) ATCC 29213 cells and the MIC determined by broth microdilution according to Clinical Laboratory Standards Institute (CLSI) methodology M07-A8 (CLSI 2009a)14. The results as shown in Supplementary Table S2 for each antibiotic against clinical isolate of MSSA ATCC 29213 strains conducted in the presence of […]
PS80 are within the quality control ranges defined in the guideline15. […]

[7] = target: VSR (Ac-VSR) in solution; conditions: cited from earlier work
[8] = MSSA ATCC 29213, with PS80, converted from mg/l
[9] = VSR in solution, ref. 1 (Van, Rist), ref. 7 (CE), ref. 2 (Ori), supplementary references, read-out: Ksurf Solution
[10] = solution, read-out: binding affinity against Ac-VSR

| SMILES | Kd [1] | Kd [2] | IC50 for Ori relative to Van ([3]; Ac-VSR competition against VRR) | IC50 [3] | Ac-VSR concentration required to inhibit the mechanical response [3] | MIC VSE [4] | MIC MRSA [5] | MIC [6, 8] | MIC ([6]; Staphylococcus aureus) | Kd [7, 9] | Kd [7, 10] |
| --- | --- | --- | --- | --- | --- | --- | --- | --- | --- | --- | --- |
| CN[C@H](CC(C)C)C(=O)N[C@H]1C(=O)N[C@@H](CC(N)=O)C(=O)N[C@H]2C(=O)N[C@H]3C(=O)N[C@H](C(=O)N[C@H](C(=O)O)c4cc(O)cc(O)c4-c4cc3ccc4O)[C@H](O[C@H]3C[C@](C)(N)[C@@H](O)[C@H](C)O3)c3ccc(c(Cl)c3)Oc3cc2cc(c3O[C@@H]2O[C@H](CO)[C@@H](O)[C@H](O)[C@H]2O[C@H]2C[C@](C)(NCc3ccc(-c4ccc(Cl)cc4)cc3)[C@@H](O)[C@H](C)O2)Oc2ccc(cc2Cl)[C@H]1O [Ori, oritavancin] | 1.6 µM | 4200 µM | 3 fold | 50.7 ± 2.1 µM | more than 500 μM | 0.25 to 2 µg/mL | 0.13 to 1.01 µg/mL | 0.03 µM (≈ 0.0538 µg/mL) | 0.06 µg/mL and 0.03 µM | 3.8 µM | ~1 µM |
| CN[C@H](CC(C)C)C(=O)N[C@H]1C(=O)N[C@@H](CC(N)=O)C(=O)N[C@H]2C(=O)N[C@H]3C(=O)N[C@H](C(=O)N[C@H](C(=O)O)c4cc(O)cc(O)c4-c4cc3ccc4O)[C@H](O)c3ccc(c(Cl)c3)Oc3cc2cc(c3O[C@@H]2O[C@H](CO)[C@@H](O)[C@H](O)[C@H]2O[C@H]2C[C@](C)(N)[C@H](O)[C@H](C)O2)Oc2ccc(cc2Cl)[C@H]1O [Van, vancomycin] | 20000 µM | 2400 µM | – | 15.4 ± 0.2 µM | 500 µM | 0.5 to 4 µg/mL | 0.5 to 4 µg/mL | 0.67 µM (≈ 0.971 µg/mL) | 1 µg/mL and 0.67 µM | 1 µM | ~1 µM |
